Source: the NIST ThermoML archive (doi:10.1016/j.jct.2013.10.031)

Test: wn = mass fraction of the nth substance listed
Conditions: Gas, Burnett expansion method

FCC(F)(F)F [1,1,1,2-tetrafluoroethane] + CCC
Conditions | mass density [kg/m3]
304.25 K, 324.7 kPa, w2 = 0.45 | 8.75837
304.25 K, 423.5 kPa, w2 = 0.45 | 11.6666
304.25 K, 550.2 kPa, w2 = 0.45 | 15.5404
304.25 K, 710 kPa, w2 = 0.45 | 20.7007
306.96 K, 235.2 kPa, w2 = 0.65 | 5.2834
306.96 K, 309.8 kPa, w2 = 0.65 | 7.0255
306.96 K, 406.3 kPa, w2 = 0.65 | 9.3418
306.96 K, 530 kPa, w2 = 0.65 | 12.4219
306.96 K, 1095.4 kPa, w2 = 0.55 | 36.0371
306.97 K, 260.5 kPa, w2 = 0.55 | 6.5188
306.97 K, 673.4 kPa, w2 = 0.55 | 20.3802
306.97 K, 686.8 kPa, w2 = 0.65 | 16.5173
306.97 K, 865 kPa, w2 = 0.55 | 27.1004
306.97 K, 880.8 kPa, w2 = 0.65 | 21.9632
306.98 K, 343.1 kPa, w2 = 0.55 | 8.6681
306.98 K, 449.3 kPa, w2 = 0.55 | 11.5262
306.98 K, 519.6 kPa, w2 = 0.55 | 15.3262
307 K, 1113.5 kPa, w2 = 0.65 | 29.2029
307.04 K, 1304.3 kPa, w2 = 0.6 | 37.3883
307.05 K, 823.4 kPa, w2 = 0.6 | 21.1446
307.06 K, 286.9 kPa, w2 = 0.6 | 6.763
307.06 K, 376.9 kPa, w2 = 0.6 | 8.993
307.06 K, 492.8 kPa, w2 = 0.6 | 11.9584
307.06 K, 640 kPa, w2 = 0.6 | 15.901
307.06 K, 1046.1 kPa, w2 = 0.6 | 28.116
308.12 K, 266.9 kPa, w2 = 0.5 | 6.72365
308.12 K, 346.4 kPa, w2 = 0.5 | 8.95632
308.12 K, 447.5 kPa, w2 = 0.5 | 11.9301
308.12 K, 577.6 kPa, w2 = 0.5 | 15.8911
308.12 K, 742.5 kPa, w2 = 0.5 | 21.1679
308.13 K, 944.9 kPa, w2 = 0.5 | 28.196
308.14 K, 1188.3 kPa, w2 = 0.5 | 37.5563
308.15 K, 263.5 kPa, w2 = 0.45 | 6.89941
308.2 K, 1234.2 kPa, w2 = 0.45 | 38.5343
308.21 K, 980.9 kPa, w2 = 0.45 | 28.9282
308.22 K, 346.6 kPa, w2 = 0.45 | 9.18817
308.22 K, 454.6 kPa, w2 = 0.45 | 12.2393
308.22 K, 592.6 kPa, w2 = 0.45 | 16.3032
308.22 K, 766.7 kPa, w2 = 0.45 | 21.7165
308.23 K, 960.1 kPa, w2 = 0.4 | 29.795
308.24 K, 751.6 kPa, w2 = 0.4 | 22.3672
308.24 K, 1208.1 kPa, w2 = 0.4 | 39.6876
308.25 K, 447.1 kPa, w2 = 0.4 | 12.6056
308.25 K, 581.8 kPa, w2 = 0.4 | 16.7913
308.26 K, 197.5 kPa, w2 = 0.4 | 5.33332
308.26 K, 260.1 kPa, w2 = 0.4 | 7.10429
308.26 K, 341.6 kPa, w2 = 0.4 | 9.46322
311.01 K, 747.3 kPa, w2 = 0.65 | 17.8403
311.01 K, 956.7 kPa, w2 = 0.65 | 23.7227
311.01 K, 1206.7 kPa, w2 = 0.65 | 31.545
311.02 K, 256.8 kPa, w2 = 0.65 | 5.8063
311.02 K, 338 kPa, w2 = 0.65 | 7.5979
311.02 K, 383.5 kPa, w2 = 0.55 | 9.3582
311.02 K, 443.1 kPa, w2 = 0.65 | 10.0895
311.02 K, 500.4 kPa, w2 = 0.55 | 12.444
311.02 K, 577.7 kPa, w2 = 0.65 | 13.4164
311.02 K, 837.9 kPa, w2 = 0.55 | 22.003
311.02 K, 1067.2 kPa, w2 = 0.55 | 29.258
311.02 K, 1334.9 kPa, w2 = 0.55 | 38.9056
311.03 K, 650.6 kPa, w2 = 0.55 | 16.547
311.06 K, 1343.8 kPa, w2 = 0.6 | 37.8297
311.07 K, 294.6 kPa, w2 = 0.6 | 6.8432
311.07 K, 386.9 kPa, w2 = 0.6 | 9.1
311.07 K, 505.8 kPa, w2 = 0.6 | 12.1
311.07 K, 657.2 kPa, w2 = 0.6 | 16.0896
311.07 K, 846.4 kPa, w2 = 0.6 | 21.3948
311.07 K, 1076.1 kPa, w2 = 0.6 | 28.4489
312.09 K, 1147.3 kPa, w2 = 0.4 | 36.0778
312.09 K, 1427.9 kPa, w2 = 0.4 | 48.057
312.1 K, 240.2 kPa, w2 = 0.4 | 6.45834
312.1 K, 415.1 kPa, w2 = 0.4 | 11.4592
312.1 K, 542.2 kPa, w2 = 0.4 | 15.2643
312.1 K, 703.7 kPa, w2 = 0.4 | 20.3326
312.1 K, 904.5 kPa, w2 = 0.4 | 27.0838
312.11 K, 316.2 kPa, w2 = 0.4 | 8.60266
312.14 K, 1384.5 kPa, w2 = 0.45 | 44.9611
312.16 K, 1108.9 kPa, w2 = 0.45 | 33.7517
312.17 K, 679.1 kPa, w2 = 0.45 | 19.022
312.17 K, 873 kPa, w2 = 0.45 | 25.3381
312.18 K, 403.4 kPa, w2 = 0.45 | 10.7201
312.18 K, 524.7 kPa, w2 = 0.45 | 14.2797
312.19 K, 309.2 kPa, w2 = 0.45 | 8.04778
312.23 K, 1062.8 kPa, w2 = 0.5 | 30.8635
312.24 K, 293.9 kPa, w2 = 0.5 | 7.35936
312.24 K, 386.2 kPa, w2 = 0.5 | 9.80302
312.24 K, 650.6 kPa, w2 = 0.5 | 17.3937
312.24 K, 835.8 kPa, w2 = 0.5 | 23.1694
312.24 K, 1330.8 kPa, w2 = 0.5 | 41.1106
312.25 K, 502.5 kPa, w2 = 0.5 | 13.0579
315.01 K, 615.4 kPa, w2 = 0.65 | 14.1721
315.01 K, 795.5 kPa, w2 = 0.65 | 18.8451
315.01 K, 1017.2 kPa, w2 = 0.65 | 25.0585
315.01 K, 1280.7 kPa, w2 = 0.65 | 33.3212
315.02 K, 274.4 kPa, w2 = 0.65 | 6.0676
315.02 K, 360.8 kPa, w2 = 0.65 | 8.015
315.02 K, 472.6 kPa, w2 = 0.65 | 10.6578
315.06 K, 855 kPa, w2 = 0.55 | 22.0047
315.06 K, 1090.2 kPa, w2 = 0.55 | 29.2605
315.06 K, 1366.4 kPa, w2 = 0.55 | 38.9077
315.07 K, 509.9 kPa, w2 = 0.55 | 12.4444
315.07 K, 663.2 kPa, w2 = 0.55 | 16.5479
315.08 K, 389.6 kPa, w2 = 0.55 | 9.3584
315.09 K, 296.5 kPa, w2 = 0.55 | 7.0377
315.09 K, 1068.9 kPa, w2 = 0.6 | 27.4868
315.1 K, 289.6 kPa, w2 = 0.6 | 6.6116
315.1 K, 498.6 kPa, w2 = 0.6 | 11.6903
315.1 K, 648.9 kPa, w2 = 0.6 | 15.5452
315.1 K, 837.4 kPa, w2 = 0.6 | 20.6708
315.1 K, 1341.8 kPa, w2 = 0.6 | 36.5492
315.11 K, 380.8 kPa, w2 = 0.6 | 8.7915
315.98 K, 1580.4 kPa, w2 = 0.5 | 50.2225
316.02 K, 947.3 kPa, w2 = 0.4 | 28.0242
316.02 K, 1201.7 kPa, w2 = 0.4 | 37.3297
316.03 K, 251.6 kPa, w2 = 0.4 | 6.68246
316.03 K, 331.4 kPa, w2 = 0.4 | 8.9013
316.03 K, 434.8 kPa, w2 = 0.4 | 11.857
316.03 K, 568 kPa, w2 = 0.4 | 15.7941
316.03 K, 737 kPa, w2 = 0.4 | 21.0384
316.03 K, 1496.5 kPa, w2 = 0.4 | 49.7241
316.07 K, 1279.9 kPa, w2 = 0.5 | 37.6931
316.09 K, 1628 kPa, w2 = 0.45 | 55.7253
316.11 K, 1015.3 kPa, w2 = 0.5 | 28.294
316.11 K, 1322.4 kPa, w2 = 0.45 | 41.8324
316.12 K, 496.6 kPa, w2 = 0.45 | 13.2868
316.12 K, 641.4 kPa, w2 = 0.45 | 17.6986
316.12 K, 825.1 kPa, w2 = 0.45 | 23.5754
316.12 K, 1051.5 kPa, w2 = 0.45 | 31.4039
316.13 K, 382.7 kPa, w2 = 0.45 | 9.97465
316.13 K, 614 kPa, w2 = 0.5 | 15.945
316.13 K, 793.6 kPa, w2 = 0.5 | 21.2396
316.14 K, 359.6 kPa, w2 = 0.5 | 8.98623
316.14 K, 471.1 kPa, w2 = 0.5 | 11.9702
319.94 K, 1816.9 kPa, w2 = 0.4 | 64.6378
319.97 K, 1488.2 kPa, w2 = 0.4 | 48.5219
319.98 K, 935.7 kPa, w2 = 0.4 | 27.3455
319.98 K, 1189.8 kPa, w2 = 0.4 | 36.4256
319.99 K, 326.1 kPa, w2 = 0.4 | 8.68561
319.99 K, 428.1 kPa, w2 = 0.4 | 11.5696
319.99 K, 559.5 kPa, w2 = 0.4 | 15.4113
319.99 K, 726.9 kPa, w2 = 0.4 | 20.5286
320 K, 1619.8 kPa, w2 = 0.5 | 49.4434
320.03 K, 1304.5 kPa, w2 = 0.5 | 37.1152
320.05 K, 1030.2 kPa, w2 = 0.5 | 27.8617
320.07 K, 802.1 kPa, w2 = 0.5 | 20.9155
320.08 K, 360.7 kPa, w2 = 0.5 | 8.84905
320.08 K, 473.5 kPa, w2 = 0.5 | 11.7874
320.08 K, 618.5 kPa, w2 = 0.5 | 15.7015
320.08 K, 1320 kPa, w2 = 0.45 | 39.4284
320.08 K, 1636.4 kPa, w2 = 0.45 | 52.5203
320.09 K, 814.3 kPa, w2 = 0.45 | 22.2206
320.09 K, 1044.1 kPa, w2 = 0.45 | 29.5994
320.1 K, 367.3 kPa, w2 = 0.45 | 9.40149
320.1 K, 481.7 kPa, w2 = 0.45 | 12.5232
320.1 K, 628.6 kPa, w2 = 0.45 | 16.6813
